According to paper PMC4764201, “High Throughput Screen for Escherichia coli Twin Arginine Translocation (Tat) Inhibitors” (PLoS ONE, 2016):
pIC50: −log10 of the molar value.

system: electrical field gradient (Δψ) across IMVs; assay: Δψ assay (oxonol VI fluorescence with IMVs); type: biochemical, Escherichia coli; conditions: not given
Procedure: Hit compounds surviving the in vitro Tat transport assay screens could be general Δψ inhibitors (ionophores), as both NADH and ATP generate the Δψ necessary for Tat transport. Since our current assay to measure Δψ requires ~20 times more test compound than the Tat transport assays, we reserved this assay for last. The presence of a Δψ was determined by measuring oxonol VI fluorescence. For all 8 hit compounds that survived initial secondary screening, we tested their dose dependent effect on the Δψ, on NADH-dependent in vitro Tat transport efficiency, and on the fluorescence signal recovered from our primary HTS assay (live cell assay). […] Out of 22 independent assays by three different people, compound 18^NIH inhibited Tat transport 12 times. The conflicting results seem more likely to arise from differences in IMV preparations rather than decomposition of or impurities in the samples of compound 18^NIH.
Isolation of inverted membrane vesicles (IMVs), Western blot analyses and purification of pre-SufI-IAC were performed as described previously. Western blots were performed using rabbit anti-mCherry antibodies (1:10,000 dilution) in the presence of 0.1% Triton X-100 and 0.1% Tween 20. The pre-SufI-IAC protein was labeled with Atto565 maleimide, and the resultant fluorescent protein, pre-SufI-IAC^Atto565, was used as a substrate for the in vitro Tat transport assays (A280 = 5.0), as described previously. The presence of a Δψ was determined by measuring oxonol VI fluorescence in presence of Tat^+ IMVs (A280 = 0.5), as described previously, except that the translocation buffer lacked BSA. Steady-state fluorescence spectra and fluorescence intensities of whole cells producing mCherry proteins were determined with an SLM-8100 spectrofluorometer.
Supplementary file pone.0149659.s003.tiff: S3 Fig IC50's for Hit Compound 181^JS. (A) The total cellular mCherry fluorescence (live cell assay; n = 1), (B) the in vitro NADH-dependent Tat transport efficiency of pre-SufI (n = 1), and (C) the maximum transmembrane electrical potential gradient (n = 1) were measured for a range of concentrations of compound 181^JS (S2E Fig). (D) SDS-PAGE gel showing in-gel fluorescence data used in (B). For (A), cells expressing spTorA-mCherry-SsrA were grown under Tat^++ conditions in a 384-well plate in the presence of 0, 0.08, 0.15, 0.3, 0.63, 1.25, 2.5, 5, 10, 20, or 40 μM compound 181^JS, as described for the HTS assay (see Methods). For (B) and (C), IMVs were incubated with the same concentrations of compound 181^JS prior to initiation of Tat transport and Δψ generation by the addition of NADH, as described previously. The red curves are best-fits using y = d + (100-d)/(1+(x/IC50)^b), where b is a slope factor and d is the high concentration asymptote. (TIFF) Click here for additional data file.

SMILES | effect on the Δψ across IMVs
Oc1cc(Cl)ccc1Oc1ccc(Cl)cc1Cl [Compound 18^NIH, 5-Chloro-2-(2,4-dichlorophenoxy)phenol] | did not collapse the Δψ

same assay, conditions: electrical field gradient; IMVs A280 = 0.5; NADH

SMILES | pIC50
N#CC1c2ccccc2-n2nncc2CN1Cc1cc(Cl)cc(Cl)c1 (centres unmarked) [21^NIH, 5-[(3,5-dichlorophenyl)methyl]-4,6-dihydrotriazolo[1,5-a][1, 4]benzodiazepine-6-carbonitrile] | 5.40
N#CC(C#N)=NNc1ccccc1Br [Compound 1, [(2-bromophenyl)hydrazono]malononitrile] | 6.00
Oc1cc(Cl)ccc1Oc1ccc(Cl)cc1Cl [Compound 18^NIH, 5-Chloro-2-(2,4-dichlorophenoxy)phenol] | < 4.00
O=[N+]([O-])c1cc([N+](=O)[O-])c2ccccc2c1Cl [Compound 51, 1-chloro-2,4-dinitronaphthalene] | 5.10
Fc1nc(F)c(F)c(NNC(=S)Nc2cccc(C(F)(F)F)c2)c1F [Compound 111, 1-[(2,3,5,6-tetrafluoropyridin-4-yl)amino]-3-[(3-trifluoromethyl)phenyl]thiourea] | 7.00
FC(F)(F)c1cccc(-c2cccc3cnccc23)c1 [Compound 140, 5-[3-(trifluoromethyl)phenyl]isoquinoline] | 6.00
O=C(Nc1cccc(C(F)(F)F)c1)Nc1ncc([N+](=O)[O-])s1 [Compound 181^JS, 1-(5-nitro-1,3-thiazol-2-yl)-3-[3-(trifluoromethyl)phenyl]urea] | 6.40
O=[N+]([O-])c1ccc(O)c(-c2cccs2)c1 [Compound 202, 4-nitro-2-thiophen-2-ylphenol] | 5.52

system: E. coli MC4100(DE3); assay: Cell growth (optical density A500) under Tat++ conditions; type: cell-based, Escherichia coli; conditions: Tat++ conditions, concentration-dependent, 8 h 25°C
Procedure: Fig 4 Effect of Oxidative Phosphorylation Inhibitors on In Vivo Tat Transport and Sensitivity of Fluorescence Detection on Plates. (A) Effect of oxidative phosphorylation inhibitors on cell growth and mCherry fluorescence under Tat^++ conditions. Cells producing spTorA-mCherry-SsrA under Tat^++ conditions were grown at 25°C for 8 h in the presence of the indicated respiratory inhibitors. After overnight incubation at 4°C, optical densities (upper panel; A500) and total mCherry cellular fluorescence intensities (lower panel; EX = 587 nm, EM = 610 nm) were measured (n = 3). Nigericin (N; 50 μM) is a H^+/K^+ exchanger, which collapses the ΔpH gradient. Valinomycin (V; 50 μM) is a K^+ ionophore, which collapses the Δψ. NaSCN (SCN; 50 mM) collapses the Δψ. NaN3 (N3; 0.1%) inhibits the cytochrome bo3 terminal oxidase. (B) Effect of NaSCN concentration on cell density and total mCherry cellular fluorescence. Measurements were made after incubating cells overnight at 4°C (n = 3). (C) Calibration and sensitivity of mCherry fluorescence detection in 384-well plates. Overnight cultures of E. coli MC4100(DE3) cells were diluted to A500 = 0.25, 0.2, 0.15, 0.10 and 0.05, and aliquoted into 384-well plates. The spTorA-mCherry-SsrA and TatABC proteins were induced together or neither were induced, as indicated. The cells were incubated at 25°C for 8 hours, and stored overnight at 4°C. Optical densities (upper panel) and mCherry fluorescence intensities (lower panel) were determined with a BMG Polarstar Omega plate reader (at 500 nm for absorbance; EX = 584 nm, EM = 620 nm for fluorescence). For comparison, the absorbance and fluorescence intensities from purified spTorA-mCherry-H6 (30, 25, 20, 15, 10 and 5 nM) are also shown (n = 3 plates, 16 wells/plate). (D) Simulated hits on 384-well plates. Using the approach described in (C), cells (A500 = 0.15) were grown on plates under the indicated conditions, and then fluorescence intensities were measured. spTorA-mCherry-SsrA was used for conditions II-IV. spTorA-mCherry-H6 was used for a minus SsrA control (I; 100%). The SsrA tag decreased the mCherry fluorescence intensity (II; 63±14%), consistent with a decrease in cytoplasmic mCherry concentration due to SsrA-dependent degradation.
The plates containing cells and dispersed test compounds were grown with shaking (200 rpm) at 25°C for 8 h. Plates were individually mounted, not stacked, on a hollow plastic platform, allowing adequate air circulation. Following the 8 h incubation, plates were transferred to 4°C for 16 h. Each plate was covered with an empty plate to prevent condensation on the lid. […] Following the incubation, plates were read using a BMG Polarstar Omega plate reader (BMG Labtech, Ortenberg, Germany) to determine optical densities (A500) and mCherry fluorescence intensities (EX = 584 nm, EM = 620 nm).
Supplementary file pone.0149659.s005.tiff: S5 Fig Effect of P. aeruginosa Tat Inhibitors on E. coli Cell Growth and Tat Transport. The concentration-dependent effects of Bay 11–7082 (A) and N-phenylmaleimide (B) on bacterial growth (black) and in vivo Tat transport of spTorA-mCherry-SsrA (red) was determined under Tat^++ conditions (top). An overnight culture of MC4100(DE3) (pTorA-mCherry-SsrA, pTatABC-Duet1) was diluted 1:50 in 10 mL fresh LB broth with appropriate antibiotics and dispensed (2 mL) into 5 tubes, and growth was continued at 37°C with shaking at 200 rpm until A500 ≈ 0.5. The indicated concentrations of the two compounds were added, and the expression of spTorA-mCherry-SsrA and TatABC were induced. Cultures were grown for another 8 h at 25°C. Cell growth was assayed by A500, and cells (1 mL, A500 = 1.0) were fractionated into cytoplasmic (C) and periplasmic (P) fractions as described. Transport of spTorA-mCherry-SsrA was assayed by in-gel fluorescence of mCherry (upper gels) and Western blot analyses (middle gels). […]

SMILES | effect on E. coli growth
Cc1ccc(S(=O)(=O)/C=C/C#N)cc1 [Bay 11–7082] | inhibited E. coli growth
O=C1C=CC(=O)N1c1ccccc1 [N-phenylmaleimide] | inhibited E. coli growth
